Here are results for two molecules from patent US20160058006A1, “COMPOSITIONS AND METHODS FOR ATTRACTING STINK BUGS” (BEDOUKIAN RESEARCH, INC., priority 2014, published 2016).

In assay [1] the test system is individual sensillum (olfactory receptor neurons) on the brown marmorated stink bug antenna. Nature of the assay: electrophysiological recording from an individual antennal sensillum in response to an olfactory stimulus. Also noted: species or system Halyomorpha halys. Conditions: 2 second stimulus, 100 μg dosage load in ethanol, versus 2 second control stimulus; FIG. 3. The text has this:
Many aspects of insect behavior are mediated by olfactory signals. These olfactory signals are detected by sensory structures called sensilla which are innervated by olfactory receptor neurons and are located on various parts of the insect body including the antenna, mouthparts and tarsi. It is possible to determine the capabilities of the peripheral sensory system by using electrophysiology methods. Basically, extracellular neural responses from the individual receptor neurons located in the sensilla on the antenna of the stinkbug can be electrically recorded in response to stimulation with various concentrations of olfactory odorants.
Details of the recording methodology for insects have been described previously. […] The action potentials within this sensillum can then be monitored and recorded. […] Electrical signals obtained from the neurons within the sensillum are band-passed filtered (300-3K Hz), amplified (1000×) and analyzed using commercial software, Autospike (Syntech, Hilversum, The Netherlands). […]
FIG. 3 represents screen shots of the analysis of the above trace (FIG. 2) from the software that used to analyze the electrophysiological data. […] In the histograms, each bar represents the number of impulses calculated for a metric of impulse size.

The test system of assay [2] is brown marmorated stink bug. The following applies: cited from earlier work.

Take ethyl (2E,4E,6Z)-decatrienoate: in assay [1], the “number of impulses (activity) in stimulus histogram compared to control histogram” value is given as “more activity in the bottom stimulus histogram as compared to the top control histogram”.

Regarding `CCC\C=C/C=C/C=C/C(=O)OC` [methyl (2E,4E,6Z)-decatrienoate], the attraction by itself entry in assay [2] (early season trials) is listed as “not attractive by itself”. Besides, in assay [2] (in vivo), the “cross-attraction of the brown marmorated stink bug” value is “cross-attractive”. For the same molecule, in assay [2] (late in the season), the attraction of adults result is on record as “reliably attracted”.
